Data on 28 compounds can be found in patent US8865734B2 (priority 2010, dated 2014).

For data set [1], the system named is in vitro grown Mycobacteria (M. tuberculosis). Briefly: QUM: Quantification of in vitro grown Mycobacteria (in vitro growth fluorescence assay). Format: cell-based. The settings on record: Mycobacterium tuberculosis; MIC, 80% bacterial growth inhibition; in vitro growth; read-out: QUM. The method, boiled down: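 Mycobacterium tuberculosis grown in vitro was quantified by fluorescence across compound dose responses. MIC is defined as the minimum concentration producing 80% growth inhibition.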

The test system of data set [2] is M. tuberculosis inside the host macrophage. Nature of the data set: QIM: Quantification of Intracellular Mycobacteria (intracellular growth assay, phenotypic cell-based). To be noted: Mycobacterium tuberculosis; MIC, 80% bacterial growth inhibition; intracellular growth; read-out: QIM. The method, boiled down:
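Phenotypic high-content assay measuring M. tuberculosis multiplication inside host macrophages, run as dose response. MIC is the minimum compound concentration giving 80% bacterial growth inhibition.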

≈ marks a conversion by molar mass, not a printed value. Some results are limits rather than exact numbers.

In turn, `CCc1nc2cc(C)ccn2c1C(=O)NCc1ccc(N2CCOCC2)cc1` [Compound 68, 2-Ethyl-7-methyl-N-(4-morpholinobenzyl)imidazo[1,2-a]pyridine-3-carboxamide] gave a melting point of 190 °C. For the same compound, the MIC in data set [1] lay in the range of 1 to 20 µM (≈ 0.378 to 7.57 µg/mL). Further, the MIC in data set [2] is < 1 µM.
As for `CCc1nc2cc(C)ccn2c1C(=O)NCc1ccc2ccccc2c1` [Compound 69, 2-Ethyl-7-methyl-N-(naphthalen-2-ylmethyl)imidazo[1,2-a]pyridine-3-carboxamide], the melting point is 192 °C. Also, the MIC in data set [1] lay within 1 to 20 µM (≈ 0.343 to 6.87 µg/mL). Moreover, in data set [2], the MIC was < 1 µM.
Taken in the same sequence, the figures for `CCc1nc2cc(Cl)ccn2c1C(=O)NCc1ccc(N2CCOCC2)cc1` [Compound 89, 7-Chloro-2-ethyl-N-(4-morpholinobenzyl)imidazo[1,2-a]pyridine-3-carboxamide] were 195 °C, < 1 µM and 1 to 20 µM (≈ 0.399 to 7.98 µg/mL).
Taken in the same sequence, the figures for `CCc1nc2ccc(Cl)cn2c1C(=O)NCc1ccc(C#N)cc1` [Compound 146, 6-Chloro-N-(4-cyanobenzyl)-2-ethylimidazo[1,2-a]pyridine-3-carboxamide] were 223 to 224 °C, > 20 µM and 1 to 20 µM (≈ 0.339 to 6.78 µg/mL).
The corresponding values for `CCc1nc2ccc(Cl)cn2c1C(=O)NCc1ccc(C(F)(F)F)cc1` [Compound 147, 6-Chloro-2-ethyl-N-(4-(trifluoromethyl)benzyl)imidazo[1,2-a]pyridine-3-carboxamide] are 179 to 180 °C, < 1 µM and < 1 µM.
Compound `CCc1nc2cc(Cl)ccn2c1C(=O)NCc1ccc(C(F)(F)F)cc1` [Compound 148, 7-Chloro-2-ethyl-N-(4-(trifluoromethyl)benzyl)imidazo[1,2-a]pyridine-3-carboxamide] displayed a melting point of 196.2 to 196.9 °C. Further, the MIC in data set [1] was < 1 µM. Also, in data set [2], the MIC was < 1 µM.
`CCc1nc2cnccn2c1C(=O)NCc1ccc(OC(F)(F)F)cc1` [Compound 155, 2-Ethyl-N-(4-(trifluoromethoxy)benzyl)imidazo[1,2-a]pyrazine-3-carboxamide] displayed a melting point of 176 to 177 °C. In addition, the MIC in data set [1] was > 20 µM. For the same compound, in data set [2], the MIC is > 20 µM.
On to `CCc1nc2c[n+]([O-])ccn2c1C(=O)NCc1ccc(OC(F)(F)F)cc1` [Compound 156, 2-Ethyl-3-((4-(trifluoromethoxy)benzyl)carbamoyl)imidazo[1,2-a]pyrazine 7-oxide], for which the melting point was in the range of 215 to 216 °C. Besides, the MIC in data set [1] was > 20 µM. Further, the MIC in data set [2] is > 20 µM.
As to `CCc1nc2ccc(Cl)cn2c1C(=O)NCCc1ccc(OC)cc1` [Compound 157, 6-Chloro-2-ethyl-N-(4-methoxyphenethyl)imidazo[1,2-a]pyridine-3-carboxamide], the melting point lay in the range of 129 to 130 °C. For the same compound, the MIC in data set [1] is < 1 µM. Further, the MIC in data set [2] is < 1 µM.
The compound `CCc1nc2ccc(Cl)cn2c1C(=O)NCCc1ccc(Cl)cc1` [Compound 158, 6-Chloro-N-(4-chlorophenethyl)-2-ethylimidazo[1,2-a]pyridine-3-carboxamide] returned a melting point of 158 to 159 °C. Also, the MIC in data set [1] is < 1 µM. In addition, the MIC in data set [2] was < 1 µM.
`CCc1nc2c[n+]([O-])ccn2c1C(=O)NCc1ccc(-c2ccc(Cl)cc2)cc1` [Compound 160, 3-(((4′-Chloro-[1,1′-biphenyl]-4-yl)methyl)carbamoyl)-2-ethylimidazo[1,2-a]pyrazine 7-oxide]: the melting point worked out at 238 °C. Also, the MIC in data set [1] was > 20 µM. Further, the MIC in data set [2] was > 20 µM.
In turn, `CCc1nc2ccc(Cl)cn2c1C(=O)OCc1ccc(-c2ccccc2)cc1` [Compound 161, [1,1′-Biphenyl]-4-ylmethyl 6-chloro-2-ethylimidazo[1,2-a]pyridine-3-carboxylate] came in with a melting point of 122.3 to 123 °C. The MIC in data set [1] was < 1 µM. Further, in data set [2], the MIC is < 1 µM.
`CCc1nc2cc(Cl)ccn2c1C(=O)NCc1ccc(N2CCC(Oc3ccc(F)cc3)CC2)cc1` [Compound 167, 7-Chloro-2-ethyl-N-(4-(4-(4-fluorophenoxy)piperidin-1-yl)benzyl)imidazo[1,2-a]pyridine-3-carboxamide] displayed a melting point of 138 to 139 °C. Moreover, in data set [1], the MIC was < 1 µM. The MIC in data set [2] is < 1 µM.
Take `CCc1nc2cc(Cl)ccn2c1C(=O)NCc1ccc(N2CCN(Cc3ccc(F)cc3)CC2)cc1` [Compound 172, 7-Chloro-2-ethyl-N-(4-(4-(4-fluorobenzyl)piperazin-1-yl)benzyl)imidazo[1,2-a]pyridine-3-carboxamide]: the melting point was in the range of 141 to 142 °C. Also, the MIC in data set [1] is < 1 µM. Besides, the MIC in data set [2] was < 1 µM.
On to `CCc1nc2ccc(Cl)cn2c1C(=O)NCc1ccc(N2CCN(Cc3ccc(OC(F)(F)F)cc3)CC2)cc1` [Compound 173, 6-Chloro-2-ethyl-N-(4-(4-(4-(trifluoromethoxy)benzyl)piperazin-1-yl)benzyl)imidazo[1,2-a]pyridine-3-carboxamide], for which the melting point fell in the range of 138.1 to 138.7 °C. Also, the MIC in data set [1] is < 1 µM. The MIC in data set [2] was < 1 µM.
`CCc1nc2cc(Cl)ccn2c1C(=O)NCc1ccc(N2CCN(Cc3ccc(OC(F)(F)F)cc3)CC2)cc1` [Compound 174, 7-Chloro-2-ethyl-N-(4-(4-(4-(trifluoromethoxy)benzyl)piperazin-1-yl)benzyl)imidazo[1,2-a]pyridine-3-carboxamide] had a melting point of 137.1 to 137.6 °C. For the same compound, the MIC in data set [1] was < 1 µM. In addition, the MIC in data set [2] is < 1 µM.
`CCc1nc2cc(Cl)ccn2c1C(=O)NCc1ccc(N2CCN(c3ccc(F)cc3)CC2)cc1` [Compound 176, 7-Chloro-2-ethyl-N-(4-(4-(4-fluorophenyl)piperazin-1-yl)benzyl)imidazo[1,2-a]pyridine-3-carboxamide] came in with a melting point of 212 to 213 °C. The MIC in data set [1] was < 1 µM. For the same compound, in data set [2], the MIC is < 1 µM.
In the case of `CCc1nc2ccc(Cl)cn2c1C(=O)NCc1ccc(N2CCN(c3ccc(OC(F)(F)F)cc3)CC2)cc1` [Compound 178, 6-Chloro-2-ethyl-N-(4-(4-(4-(trifluoromethoxy)phenyl)piperazin-1-yl)benzyl)imidazo[1,2-a]pyridine-3-carboxamide], the melting point fell in the range of 206.5 to 207 °C. Also, the MIC in data set [1] was < 1 µM. Also, in data set [2], the MIC is < 1 µM.
In the case of `CCc1nc2cc(C(F)(F)F)ccn2c1C(=O)NCc1ccc(N2CCOCC2)cc1` [Compound 322, 2-Ethyl-N-(4-morpholinobenzyl)-7-(trifluoromethyl)imidazo[1,2-a]pyridine-3-carboxamide], the melting point is 174.1 °C. Moreover, in data set [1], the MIC was in the range of 1 to 20 µM (≈ 0.432 to 8.65 µg/mL).
For `CCc1nc2c(C(F)(F)F)cccn2c1C(=O)NCc1ccc(N2CCOCC2)cc1` [Compound 323, 2-Ethyl-N-(4-morpholinobenzyl)-8-(trifluoromethyl)imidazo[1,2-a]pyridine-3-carboxamide], the melting point amounted to 200.6 °C. In data set [1], the MIC was in the range of 1 to 20 µM (≈ 0.432 to 8.65 µg/mL).
As for `CCc1nc2cc(Cl)ccn2c1C(=O)NCc1ccc(N2CCC(c3ccc(Cl)cc3)CC2)cc1` [Compound 338, 7-Chloro-N-(4-(4-(4-chlorophenyl)piperidin-1-yl)benzyl)-2-ethylimidazo[1,2-a]pyridine-3-carboxamide], the melting point was 177 °C. Moreover, the MIC in data set [1] is < 1 µM.
In turn, `CCc1nc2ccc(Cl)cn2c1C(=O)NCc1ccc2oc(C3CCCCC3)nc2c1` [Compound 339, 6-Chloro-N-((2-cyclohexylbenzo[d]oxazol-5-yl)methyl)-2-ethylimidazo[1,2-a]pyridine-3-carboxamide] registered a melting point of 169.7 °C. Also, the MIC in data set [1] is < 1 µM.
Taken in the same sequence, the figures for `CCc1nc2cc(Cl)ccn2c1C(=O)NCc1ccc2oc(C3CCCCC3)nc2c1` [Compound 340, 7-Chloro-N-((2-cyclohexylbenzo[d]oxazol-5-yl)methyl)-2-ethylimidazo[1,2-a]pyridine-3-carboxamide] were 163 °C and < 1 µM.
`CCc1nc2ccc(Cl)cn2c1C(=O)NCc1ccc(N2CCC(O)(c3ccc(F)cc3)CC2)cc1` [Compound 341, 6-Chloro-2-ethyl-N-(4-(4-(4-fluorophenyl)-4-hydroxypiperidin-1-yl)benzyl)imidazo[1,2-a]pyridine-3-carboxamide] registered a melting point of 173.5 °C. In addition, in data set [1], the MIC is < 1 µM.
The corresponding values for `CCc1nc2cc(Cl)ccn2c1C(=O)NCc1ccc(N2CCC(O)(c3ccc(F)cc3)CC2)cc1` [Compound 342, 7-Chloro-2-ethyl-N-(4-(4-(4-fluorophenyl)-4-hydroxypiperidin-1-yl)benzyl)imidazo[1,2-a]pyridine-3-carboxamide] are 199 °C and < 1 µM.
Taken in the same sequence, the figures for `CCc1nc2ccc(Cl)cn2c1C(=O)NCc1ccc(N2CCC(C(N)=O)CC2)cc1` [Compound 343, N-(4-(4-Carbamoylpiperidin-1-yl)benzyl)-6-chloro-2-ethylimidazo[1,2-a]pyridine-3-carboxamide] were 257.5 °C and < 1 µM.
The corresponding values for `CCc1nc2cc(Cl)ccn2c1C(=O)NCc1ccc(N2CCC(C(N)=O)CC2)cc1` [Compound 344, N-(4-(4-Carbamoylpiperidin-1-yl)benzyl)-7-chloro-2-ethylimidazo[1,2-a]pyridine-3-carboxamide] are 244 °C and 1 to 20 µM (≈ 0.44 to 8.8 µg/mL).
With `CCc1nc2ccc(Cl)cn2c1C(=O)NCc1ccc(N2CCOCC2)c(Cl)c1` [Compound 349, 6-Chloro-N-(3-chloro-4-morpholinobenzyl)-2-ethylimidazo[1,2-a]pyridine-3-carboxamide], the melting point was determined as 175.5 °C. Further, the MIC in data set [1] was < 1 µM.

The melting point is the temperature of the solid-liquid transition.
